Measured values: US8338422B2, “Indolin-2-ones and aza-indolin-2-ones” (Janssen Pharmaceutica NV, priority 2007, dated 2012)
Where “and” joins values, the source holds several entries; their conditions need not be identical. Equal values may be shown once.

Experiments:
AuroraB (h) = AuroraB (h) (Homo sapiens, UniProt Q96GD4); experiment: Aurora-B human kinase assay (SPA); assay type: biochemical; details: read-out: AuroraB pIC50 (converted)
How it was run: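 33P-phosphorylated biotin-substrate captured on streptavidin PVT SPA beads after EDTA-containing stop and imaged on Leadseeker. Reaction: 60 min at room temperature, Hepes pH 7.5 with Mg2+/Mn2+. Conditions: 0.5 μM ATP plus 2.2 nM [γ-33P]ATP, 3 μM substrate, 0.5 μg/ml human AuroraB.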

GSK3β (h) = GSK3β (h) (Homo sapiens, UniProt P49841); experiment: GSK-3β human kinase assay (SPA); assay type: biochemical; details: read-out: GSK3B pIC50 (converted)
How it was run: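 Radiometric SPA read-out: after EDTA stop, biotinylated 33P-labelled peptide bound streptavidin PVT beads and was imaged on Leadseeker. Reaction: 60 min, room temperature, GSK3β (h) at 1 μg/ml, 1 μM substrate peptide, 1 μM ATP with 2 nM [γ-33P]ATP, Tris pH 7.4/MgCl2/DTT buffer.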

SKOV3 = experiment: Cellular proliferation assay (Alamar blue), SKOV3; assay type: cell-based; details: Homo sapiens, SK-OV-3, SKOV3 cells, 72 hours with compound, 10% FCS, read-out: pIC50 SKOV3 (converted)
How it was run: (§1)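 Proliferation was assessed over 72 h of compound treatment, following 24 h of seeding without compound, under 10% FCS, 37° C. and 5% CO2. Fluorescent resazurin product was measured and compared with control cells.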

HT-29 = experiment: Cellular proliferation assay (Alamar blue), HT-29; assay type: cell-based; details: Homo sapiens, HT-29 cells, 72 hours with compound, 10% FCS, read-out: pIC50 HT-29 (converted)
Protocol: (§2) […] functional properties of these compounds was tested in cellular proliferation assays on a panel of different cell lines in the presence of 10% FCS serum (37° C. and 5% (v/v) CO2). In a first step these cells were seeded and incubated for 24 hours in the absence of compound. In the second step the cells were incubated for 72 hours with the compounds to be tested for 72 hours. The viable cell number was finally assessed in a standard Alamar blue cell viability assay.
(§3) The viable cell number was assessed by incubation for either 4 h (HCT-116, H1299, H460) 6 h (SKOV3, HT29, U87-MG, Colo205) or 24 h (A2780, PC3, MDA-MB-231, A549, MCF-7) with Alamar blue (Resazurin 9 μg/ml, K-Ferrocyanide 90 μM K-Ferricyanide 90 μM) and the converted fluorescent product was quantified on a fluorescent plate readed (544 nm/590 nm). Effect of the compounds is calculated as of on control cells.

HCT-116 = experiment: Cellular proliferation assay (Alamar blue), HCT-116; assay type: cell-based; details: Homo sapiens, HCT-116, 72 h, HCT-116 cells, 72 hours with compound, 10% FCS, read-out: pIC50 HCT-116 (converted)
How it was run: as §1

Colo205 = experiment: Cellular proliferation assay (Alamar blue), Colo205; assay type: cell-based; details: Homo sapiens, COLO 205, Colo205 cells, 72 hours with compound, 10% FCS, read-out: pIC50 Colo205 (converted)
Protocol: as §2, §3

A549 = experiment: Cellular proliferation assay (Alamar blue), A549; assay type: cell-based; details: Homo sapiens, A549 cells, 72 hours with compound, 10% FCS, read-out: pIC50 A549 (converted)
Protocol: as §2, §3

H460 = experiment: Cellular proliferation assay (Alamar blue), H460; assay type: cell-based; details: Homo sapiens, NCI-H460, H460 cells, 72 hours with compound, 10% FCS, read-out: pIC50 H460 (converted)
Protocol: as §2, §3

MDA/MB231 = experiment: Cellular proliferation assay (Alamar blue), MDA/MB231; assay type: cell-based; details: Homo sapiens, MDA-MB-231, 72 h, MDA/MB231 cells, 72 hours with compound, 10% FCS, read-out: pIC50 MDA/MB231 (converted)
How it was run: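 Cells were grown in 10% FCS at 37° C. with 5% CO2, plated 24 h without compound, then exposed to compound for 72 h. Viability was measured by Alamar blue (resazurin 9 μg/ml) fluorescence at 544 nm/590 nm after 4 h (H460) or 24 h (MDA-MB-231) dye incubation, relative to control cells.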

MCF-7 = experiment: Cellular proliferation assay (Alamar blue), MCF-7; assay type: cell-based; details: Homo sapiens, MCF7, MCF-7 cells, 72 hours with compound, 10% FCS, read-out: pIC50 MCF-7 (converted)
Protocol: as §2, §3

DU-145 = experiment: Cellular proliferation assay (Alamar blue), DU-145; assay type: cell-based; details: Homo sapiens, DU-145 cells, 72 hours with compound, 10% FCS, read-out: pIC50 DU-145 (converted)
Protocol: as §2, §3

A431 = experiment: Cellular proliferation assay (Alamar blue), A431; assay type: cell-based; details: Homo sapiens, A-431, A431 cells, 72 hours with compound, 10% FCS, read-out: pIC50 A431 (converted)
Protocol: as §2, §3

PC-3 = experiment: Cellular proliferation assay (Alamar blue), PC-3; assay type: cell-based; details: Homo sapiens, PC-3, 72 h, PC-3 cells, 72 hours with compound, 10% FCS, read-out: pIC50 PC-3 (converted)
How it was run: as §1

Sequence of AuroraB (h) (Q96GD4 whole entry): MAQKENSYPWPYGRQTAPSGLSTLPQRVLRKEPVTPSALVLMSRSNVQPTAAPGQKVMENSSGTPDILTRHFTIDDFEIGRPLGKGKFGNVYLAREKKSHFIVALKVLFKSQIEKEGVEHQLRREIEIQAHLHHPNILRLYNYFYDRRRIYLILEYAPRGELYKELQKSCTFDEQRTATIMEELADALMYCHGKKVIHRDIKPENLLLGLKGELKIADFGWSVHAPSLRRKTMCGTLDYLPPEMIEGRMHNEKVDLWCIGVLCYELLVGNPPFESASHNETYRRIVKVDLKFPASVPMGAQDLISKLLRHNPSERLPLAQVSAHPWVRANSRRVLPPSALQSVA
Sequence of GSK3β (h) (P49841 whole entry): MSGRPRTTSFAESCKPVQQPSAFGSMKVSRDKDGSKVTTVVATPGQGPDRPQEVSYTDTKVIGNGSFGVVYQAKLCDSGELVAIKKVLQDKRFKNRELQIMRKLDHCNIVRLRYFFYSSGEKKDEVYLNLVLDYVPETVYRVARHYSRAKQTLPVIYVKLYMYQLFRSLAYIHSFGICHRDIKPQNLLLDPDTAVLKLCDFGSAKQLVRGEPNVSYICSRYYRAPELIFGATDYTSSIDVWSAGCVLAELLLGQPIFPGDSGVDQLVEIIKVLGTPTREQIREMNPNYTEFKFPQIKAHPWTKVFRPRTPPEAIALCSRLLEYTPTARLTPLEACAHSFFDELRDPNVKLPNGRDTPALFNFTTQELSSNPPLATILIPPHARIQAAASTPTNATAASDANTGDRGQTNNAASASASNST

IC50 (AuroraB (h)) | IC50 (GSK3β (h)) | IC50 (SKOV3) [nM] | IC50 (HT-29) [nM] | IC50 (HCT-116) [nM] | IC50 (Colo205) [nM] | IC50 (A549) [nM] | IC50 (H460) [nM] | IC50 (MCF-7) [nM] | IC50 (DU-145) [nM] | IC50 (A431) [nM] | IC50 (PC-3) [nM] | Compound | IC50 (MDA/MB231) [nM]
1380 nM and 1580 nM | 309 nM and 313 nM | 1350 | 2820 | 1580 | 1950 | 537 | 1000 | 575 | 1230 | > 10000 | 1660 | COc1ccc2cc1OCCCC(=O)N(C)CCCN(C)c1ncnc3c1/C(=C/N2)C(=O)N3 [Compound 31] | 1910
> 10000 nM | 891 nM | 2090 | > 10000 | > 10000 | > 10000 | > 10000 | > 10000 | 5750 | > 10000 | > 10000 | 2340 | COc1ccc2cc1OCCCCCC(=O)N1CCN(CC1)c1ncnc3c1/C(=C/N2)C(=O)N3 [Compound 18] | > 10000
50.1 nM and 51.3 nM | 20.9 nM and 23.4 nM | 339 | 525 | 457 | 354 | < 302 | 372 | < 302 | < 302 | 1450 | 457 | COc1ccc2cc1OCCCC(=O)N(C)CCCNc1ncnc3c1/C(=C/N2)C(=O)N3 [Compound 9] | 1380
